Results: patent US8389554B2, “Imidazothiadiazole derivatives” (Merck Patent Gesellschaft mit Beschränkter Haftung, priority 2008, dated 2013)

Biological target: T1, GST-ALK5 (Homo sapiens, UniProt P36897)
T1 sequence (P36897 34-503): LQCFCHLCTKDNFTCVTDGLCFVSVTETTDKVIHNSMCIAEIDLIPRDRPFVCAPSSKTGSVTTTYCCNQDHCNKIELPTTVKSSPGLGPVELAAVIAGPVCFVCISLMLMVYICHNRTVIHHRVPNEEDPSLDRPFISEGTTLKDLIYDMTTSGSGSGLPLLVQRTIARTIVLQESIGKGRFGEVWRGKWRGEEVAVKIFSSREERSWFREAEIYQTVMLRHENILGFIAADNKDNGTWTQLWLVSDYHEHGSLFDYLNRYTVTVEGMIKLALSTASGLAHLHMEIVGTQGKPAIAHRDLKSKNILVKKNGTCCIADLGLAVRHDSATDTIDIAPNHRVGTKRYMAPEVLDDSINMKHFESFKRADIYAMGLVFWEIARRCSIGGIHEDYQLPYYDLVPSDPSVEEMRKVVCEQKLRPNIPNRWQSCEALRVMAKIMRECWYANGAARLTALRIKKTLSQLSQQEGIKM
Assay: In-vitro (enzyme) flashplate kinase assay, inhibition of TGF-beta receptor I kinase
Assay type: biochemical
Details: 384-well flashplate, GST-ALK5, GST-SMAD2 substrate, 3 mM ATP, 30° C., 45 min
Procedure: In-Vitro (Enzyme) Assay for Determination of the Efficacy of Inhibitors of the Inhibition of TGF-Beta-Mediated Effects
The kinase assay was carried out as 384-well flashplate assay. 31.2 nM of GST-ALK5, 439 nM of GST-SMAD2 and 3 mM of ATP (with 0.3 μCi of ^33P-ATP/well) were incubated in a total volume of 35 μl (20 mM of HEPES, 10 mM of MgCl2, 5 mM of MnCl2, 1 mM of DTT, 0.1% of BSA, pH 7.4) without or with test substance (5-10 concentrations) at 30° C. for 45 min. The reaction was stopped using 25 μl of 200 mM EDTA solution, filtered with suction at room temperature after 30 min, and the wells were washed with 3 times 100 μl of 0.9% NaCl solution. Radioactivity was measured in the TopCount. The IC50 values were calculated using RS1 (Table 1). Above and below, all temperatures were indicated in ° C.

IC50 [nM]	SMILES
270	COc1cc(-c2cnc3sc(NCCc4ccccn4)nn23)cc(OC)c1OC [No 20, (2-Pyridin-2-yl-ethyl)-[5-(3,4,5-trimethoxy-phenyl)-imidazo[2,1-b][1,3,4]thiadiazol-2-yl]-amine]
240	Cc1cc(-c2cnc3sc(NCc4ccco4)nn23)cc(C)c1O [No 38, 4-{2-[(Furan-2-ylmethyl)-amino]-imidazo[2,1-b][1,3,4]thiadiazol-5-yl}-2,6-dimethyl-phenol]
780	CC(=O)c1cccc(-c2cnc3sc(NCCN4CCOCC4)nn23)c1 [No 158, 1-{3-[2-(2-Morpholin-4-yl-ethylamino)-imidazo[2,1-b][1,3,4]thiadiazol-5-yl]-phenyl}-ethanone]
330	COc1cc(-c2cnc3sc(NCc4cccs4)nn23)cc(OC)c1OC [No 165, Thiophen-2-ylmethyl-[5-(3,4,5-trimethoxy-phenyl)-imidazo[2,1-b][1,3,4]thiadiazol-2-yl]-amine]
820	COc1cc(-c2cnc3sc(NCC(C)C)nn23)cc(OC)c1OC [No 266, Isobutyl-[5-(3,4,5-trimethoxy-phenyl)-imidazo[2,1-b][1,3,4]thiadiazol-2-yl]-amine]
810	COc1cc(-c2cnc3sc(NCC4CCOCC4)nn23)cc(OC)c1OC [No 274, (Tetrahydro-pyran-4-ylmethyl)-[5-(3,4,5-trimethoxy-phenyl)-imidazo[2,1-b][1,3,4]thiadiazol-2-yl]-amine]
780	COc1cc(-c2cnc3sc(NCCOc4ccccc4)nn23)cc(OC)c1OC [No 277, (2-Phenoxy-ethyl)-[5-(3,4,5-trimethoxy-phenyl)-imidazo[2,1-b][1,3,4]thiadiazol-2-yl]-amine]
740	COc1cc(-c2cnc3sc(NCc4cccs4)nn23)ccc1O [No 307, 2-Methoxy-4-{2-[(thiophen-2-ylmethyl)-amino]-imidazo[2,1-b][1,3,4]thiadiazol-5-yl}-phenol]
700	CC(=O)c1cccc(-c2cnc3sc(NCCc4ccncc4)nn23)c1 [No 360]
570	COc1cc(-c2cnc3sc(NC4CCC(O)CC4)nn23)cc(OC)c1OC (stereo not shown) [No 363, 4-[5-(3,4,5-Trimethoxy-phenyl)-imidazo[2,1-b][1,3,4]thiadiazol-2-ylamino]-cyclohexanol]
670	COc1cc(-c2cnc3sc(NCc4cccnc4)nn23)cc(OC)c1OC [No 416, Pyridin-3-ylmethyl-[5-(3,4,5-trimethoxy-phenyl)-imidazo[2,1-b][1,3,4]thiadiazol-2-yl]-amine]
480	COc1cc(-c2cnc3sc(NCCc4ccncc4)nn23)cc(OC)c1OC [No 442, (2-Pyridin-4-yl-ethyl)-[5-(3,4,5-trimethoxy-phenyl)-imidazo[2,1-b][1,3,4]thiadiazol-2-yl]-amine]
740	COc1cc(-c2cnc3sc(NCCCO)nn23)cc(OC)c1OC [No 456, 3-[5-(3,4,5-Trimethoxy-phenyl)-imidazo[2,1-b][1,3,4]thiadiazol-2 - ylamino]-propan-1-ol]
160	COc1cc(-c2cnc3sc(NCCc4ccc(S(N)(=O)=O)cc4)nn23)cc(OC)c1OC [No 464, 4-{2-[5-(3,4,5-Trimethoxy-phenyl)-imidazo[2,1-b][1,3,4]thiadiazol-2-ylamino]-ethyl}-benzenesulfonamide]
360	CC(=O)c1cccc(-c2cnc3sc(NCCc4ccc(S(N)(=O)=O)cc4)nn23)c1 [No 490, 4-{2-[5-(3-Acetyl-phenyl)-imidazo[2,1-b][1,3,4]thiadiazol-2-ylamino]-ethyl}-benzenesulfonamide]
490	COc1cc(-c2cnc3sc(NCCN4CCOCC4)nn23)cc(OC)c1OC [No 495, (2-Morpholin-4-yl-ethyl)-[5-(3,4,5-trimethoxy-phenyl)-imidazo[2,1-b][1,3,4]thiadiazol-2-yl]-amine]
